Experimental data from patent publication US7902253B2, “Isoflavone derivatives of tectorigenin, the preparation thereof and the antiviral medicine containing the same as an effective constituent” (priority 2003, dated 2011).
≈ marks a conversion by molar mass, not a printed value. Where “and” joins values, the source holds several entries; their conditions need not be identical. Equal values may be shown once. Read-outs that look alike come from different tables or passages of the source.

Assays:
[1] = system: VZV; type: cell-based
[2] = system: adenovirus type 3 (ADV3); type: cell-based
[3] = system: Vero-E6 cell; experiment: toxicity to Vero-E6 cell (CPE, REED-MUENCH); conditions: five days, CPE index
[4] = solubility test in water (Chinese Pharmacopeia method); conditions: 25° C.±2° C., shaken every five minutes for 30 minutes
[5] = system: Coxsackie virus group B (CoxBV); type: cell-based
[6] = system: coronavirus BJ01 strain; experiment: organism not typed; type: cell-based, coronavirus (SARS); conditions: for IC50: Vero C1008, 120 h
[7] = system: adenovirus type 7 (ADV7); type: cell-based
[8] = system: respiratory syncytial virus (RSV); type: cell-based
[9] = solubility in water stated in description and preparation examples; type: physicochemical
[10] = system: influenza virus type A1 (Flu•V A1); type: cell-based
[11] = system: HSV-1; type: cell-based
[12] = system: influenza virus type A3 (Flu•V A3); type: cell-based
[13] = clarity of injection after adding glucose; type: physicochemical
[14] = system: Hep-2 cells; experiment: cell toxicity test; conditions: Hep-2, all concentrations tested
[15] = system: Z-HL16C cells; experiment: cell toxicity test; conditions: all concentrations tested
[16] = product of the preparation example (salt as made), read-out: solubility in water

SMILES	cell pathologic change degree [1]	cell pathologic change degree [2]	TD50 (median toxic concentration) [3]	Solute: water [4]	cell pathologic change degree [5]	IC50 [6]	cell pathologic change degree [7]	cell pathologic change degree [8]	solubility [9, 16]	cell pathologic change degree [10]	cell pathologic change degree [11]	cell pathologic change degree [12]	further results
COc1c(O)c(CN2CCCCC2)c2occ(-c3ccc(O)cc3)c(=O)c2c1O [Compound (IX)]	1+ and 2+ and 3+	1+ and 3+	2.89 mg/mL	8 mg/mL	1+ and 2+ and 3+	125 µg/mL (≈ 315 µM)	2+ and 3+	2+	< 1000 µg/mL	2+	2+	1+ and 2+ and 3+	–
COc1c(O)cc2occ(-c3ccc(OCCN(C)C)cc3)c(=O)c2c1O [Compound (VIII)]	2+	1+ and 2+ and 3+	3.45 mg/mL	10 mg/mL	1+ and 2+ and 3+	112 µg/mL (≈ 302 µM)	2+ and 3+	2+ and 3+	> 2000 µg/mL	2+	1+ and 2+	1+ and 2+ and 3+	–
COc1c(O)cc2occ(-c3ccc(O)c(S(=O)(=O)[O-])c3)c(=O)c2c1O.[Na+] [Compound (IV), tectorigenin sodium sulfonate]	–	–	4.34 mg/mL	67 mg/mL	–	97.6 µg/mL	–	–	–	–	–	–	clarity of the injection ([13]; 2-15% glucose added, room temperature and low temperature (0° C.-5° C.)): kept clarified; clarity of the injection ([13]; 4% glucose added, room and low (0° C.˜5° C.) temperature): kept clear; solubility ([9]; 60 °C, after heating to 60˜100° C., read-out: water-solubility): 50000 to 60000 µg/mL; solubility ([9]; room temperature, read-out: water-solubility): 20000 µg/mL
COc1c(O)cc2occ(-c3ccc(O)c(N)c3)c(=O)c2c1O [Compound (VI)]	2+ and 3+	1+ and 2+ and 3+	3.85 mg/mL	8 mg/mL	2+	120 µg/mL (≈ 381 µM)	2+ and 3+	2+ and 3+	> 1000 µg/mL	2+	1+ and 2+ and 3+	1+ and 2+ and 3+	–
COc1c(O)cc2occ(-c3ccc(OCC(=O)[O-])cc3)c(=O)c2c1O.[Na+] [Compound (VII)]	1+ and 2+	1+ and 2+	4.20 mg/mL	15 mg/mL	1+ and 2+ and 3+	102 µg/mL	2+ and 3+	2+ and 3+	> 2000 µg/mL	2+	1+	1+ and 2+ and 3+	–
C=C1CC[C@@H]2[C@](C)(COC(=O)CCC(=O)[O-])[C@H](OC(=O)CCC(=O)[O-])CC[C@@]2(C)[C@@H]1/C=C/C1=CCOC1=O.[K+].[Na+] [Chuanhuning, Potassium Sodium Dehydroandroandrographolide Succinate, reference compound]	1+ and 2+ and 3+	2+ and 3+	–	–	2+ and 3+	–	2+ and 3+	2+ and 3+	–	2+ and 3+	1+ and 2+ and 3+	2+ and 3+	toxic reaction to cells (in words) [14]: no any toxic reaction; effect on cytopathogenesis (in words) [2]: inhibiting effect; toxic reaction to cells (in words) [15]: no any toxic reaction; effect on cytopathogenesis (in words) [5]: inhibiting effect; effect on cytopathogenesis (in words) [7]: inhibiting effect; effect on cytopathogenesis (in words) [8]: inhibiting effect; effect on cytopathogenesis (in words) [10]: inhibiting effect; effect on cytopathogenesis (in words) [12]: inhibiting effect
COc1c(O)c(CN(C)C)c2occ(-c3ccc(O)cc3)c(=O)c2c1O [Compound (X)]	1+ and 2+	1+ and 2+ and 3+	3.95 mg/mL	9 mg/mL	1+ and 3+	119 µg/mL (≈ 332 µM)	2+ and 3+	2+ and 3+	> 2000 µg/mL	2+	1+ and 2+ and 3+	1+ and 2+ and 3+	–
NC(=O)c1ncn([C@@H]2O[C@H](CO)[C@@H](O)[C@H]2O)n1 [Ribavirin, reference compound]	–	1+ and 2+ and 3+	–	–	2+ and 3+	–	2+ and 3+	2+ and 3+	–	1+ and 3+	1+ and 2+ and 3+	1+ and 3+	Pathologic change pore/cell pore [6]: 2/4 and 3/4 and 4/4 and 0/4 and 1/4
COc1c(O)cc2occ(-c3ccc(O)cc3)c(=O)c2c1O [Compound (I), 5,7,4′-trihydroxy-6-methoxyl isoflavone, reference compound]	–	–	–	0.1 mg/mL	–	–	–	–	–	–	–	–	–
